Assay results: US20030211469A1, “Inhibiting hepatitis c virus processing and replication” (priority 2003, published 2003)
Like-named read-outs stand apart in the source and are kept apart here.

Experiments:
HCV NS2/3 (810-1615BK) [1] = biological target: T1, HCV NS2/3 (810-1615BK) (Hepatitis C virus genotype 1b, UniProt P26663); assay type: biochemical, Hepatitis C virus (BK strain); conditions: for NS2/3 Processed (% of Control): 5 mM final concentration of nucleoside analog; for inhibition at the maximum concentration tested: 5 mM; for inhibition at the maximum concentration tested / IC50: residual ATP approximately 1 mM; for IC50: titration, read-out: IC50, inhibition of NS2/3 processing
T1 construct: HCV residues 810-1615 of the BK strain; made in house; host or cells: in vitro translation in rabbit reticulocyte lysate from plasmid pCITE 810-1615BK
Description: (§1) HCV residues 810-1615 of the BK strain, which includes all of NS2 and most of NS3 (termed 810-1615BK), was produced from the plasmid pCITE 810-1615BK (a gift from Dr. Nicola La Monica) and has been described previously by Pieroni, et al., (1997) J. Virol. 71, 6373. Following plasmid linearization with BLP1, RNA was transcribed with T7 RNA polymerase and purified. Protein translation was in rabbit reticulocyte lysate, 30° C. for 40 minutes using [^35S]-methionine as a label. Translation was then blocked by the addition of cycloheximide (250 μM final) and the samples were immediately frozen on dry ice.
(§2) Prior to processing experiments, an aliquot of translated NS2/3 was thawed on ice. Processing of 810-1615BK was initiated by addition to room temperature solutions containing Triton X-100 at 1%, as described by Pieroni, et al., (1997) J. Virol. 71, 6373. The distribution of [^35S]-labeled proteins on dried gels was determined with a Phosphorimager (Molecular Dynamics). Product bands were quantified and expressed as a proportion of total signal in the gel lane so that variations in gel lane loading were normalized.

[2] = biological target: T2, NS2/3 fusion protein Ubi-849-1207J-BLA (UniProt P26662+P62593, S1165A); experiment: Processing of NS2/3 fusion protein Ubi-849-1207J-BLA in reticulocyte lysate; assay type: biochemical, Hepatitis C virus (J strain)
T2 construct: NS2/3 residues 849-1207 (J strain); ubiquitin (N, cleaved yes); made in house; host or cells: in vitro translation in rabbit reticulocyte lysate from plasmid pM3A
Text: The plasmid pM3A, derived from pCDNA (Invitrogen), encodes a fusion protein termed Ubi-849-1207J-BLA that contains ubiquitin at its N-terminus, followed by NS2/3 residues 849-1207 (J strain) linked to bacterial TEM-1 β-lactamase at the C-terminus. […] RNA synthesis for this construct is driven by the T7 promoter, and RNA was separately prepared for translation as in Example 1. Upon translation in rabbit reticulocyte lysate, the ubiquitin is immediately cleaved from the protein by cellular ubiquitin hydrolases. (Hochstrasser, (1996) Annual Review of Genetics 30, 405.)
The cleavable linkage (SEQ. ID. NO. 1) is present as ubiquitin↓ArgHisGlySerGluPhe-NS2/3. […] Translations were limited to 30 minutes for that reason. Quantification of processing at room temperature was by comparison of samples prepared immediately after addition of cycloheximide with later time samples.

[3] = system: ubiquitin-ubiquitin-ubiquitin-NS2/3-β-lactamase in Jurkat cells; experiment: Cell-based NS2/3 cleavage assay, Jurkat cells, β-lactamase/CCF2 readout; set-up: species or system Hepatitis C virus; conditions: for IC50: read-out: IC50, NS2/3 cleavage in cells, 5 hours treatment, 460 nm/530 nm ratio
Description: Inhibitor treatment was for 5 hours, followed by addition of cycloheximide to stop protein synthesis (30 minutes) and subsequent addition of the β-lactamase substrate, CCF2. After 2 hours, β-lactamase activity was quantified by fluorescence readings (460 nm/530 nm ratio). Lower 460 nm/530 nm ratios indicate inhibition of NS2/3 cleavage.
Through the use of a neomycin-selectable transfection vector, stable expression of NS2/3 in Jurkat cells was obtained. The plasmid pUbBla3X-NS2/3-3A conferring neomycin (G418) resistance, expresses a fusion of the NS2/3 protein with 3 ubiquitin domains appended to the N-terminus and β-lactamase at the C-terminus. The complete uncleaved protein has an in vivo half-life estimated to be 5-10 minutes.
The plasmid pUbBla3X NS2/3-3A was transfected into Jurlcat cells. The CMV promoter-driven ORF of the plasmid encodes a 91 kDa protein, ubiquitin-ubiquitin-ubiquitin-NS2/3-β-lactamase, with the C-termini of the 3 ubiquitin domains rendered non-cleaveable to ubiquitin-C-terminal hydrolases (ubiquitin C-terminal sequence ArgLeuArgGlyVal, SEQ. ID. NO. 2). The NS2/3 region includes HCV residues 849-1207. The β-lactamase domain is TEM-1 from E. coli. Expression of the P-lactamase moiety is readily detected with the fluorogenic, cell-penneant substrate, CCF2. (Zlokarnik, et al., (1998) Scienice 279, 84.) Transfectants were sorted by FACS using treatment with CCF2 to indicate β-lactamase expression (Zlokarnik, et al., (1998) Science 279, 84), and individual clones were grown under G418 selection. The full fusion protein expressed is highly unstable to ubiquitin-directed proteosomal degradation due to its ubiquitin N-terminal tag, while the C-terminal product of NS2/3 cleavage, NS3-β-lactamase, is stable for hours. Thus, build-up in the cells of O-lactamase activity, as indicated by CCF2 hydrolysis (high 460 nm1530 nm ratio) is indicative of successful NS2/3 cleavage, and suppression of P-lactamase activity indicates NS2/3 inhibition.
(See, Grakoui, et al., (1993) P.N.A.S. USA 90, 10583, Selby, et al., (1993) J. Gen. Virol. 74, 1103, fijikata, et al., (1993) J. Virol. 67, 4665, Santolini, et al., (1995) J. Viol. 69, 7461, D'Souza, et al., (1994) J. Gen. Virol. 75, 3469, and Pieroni, et al., (1997) J. Virol. 71, 6373.) NS2/3 self-cleavage separates the destabilizing ubiquitin degradation signal at the N-terminus from the NS3-O-lactamase C-terminal product, thus stabilizing the β-lactamase activity within the cell.

HCV NS2/3 (810-1615BK) [4] = assay type: biochemical, Hepatitis C virus (BK strain); conditions: for NS2/3 Processed (% of Control): present during synthesis and processing, 30 minutes
Description: as §1, §2
NS2/3 processing reactions were performed with 810-1615BK. […] (Darke, et al., (1999) J. Biol. Chem. 274, 34511.) Inhibitors were dissolved in DMSO and protected from light. Dilutions were in DMSO, such that the final concentration of DMSO was 2% for in vitro experiments and 1% for cell-based assays. […] (Hu, et al., (1996) P.N.A.S. USA 93, 1060; Thulasiraman, et al., (1996) Biochemistry 35, 13443 (1996), Schneider, et al., (1996) P.N.A.S. USA 93, 14536.)
to the data, where a is the minimal level of fractional activity (tending to 0), a+b is the maximal level (tending to 1), x is the concentration of inhibitor, c is the IC50 and d is a slope coefficient. […] Values given are the average of two determinations.

[5] = titration, 810-1615BK, average of two determinations

Row | SMILES | NS2/3 Processed (% of Control) (HCV NS2/3 (810-1615BK) [1]) | inhibition at the maximum concentration tested (HCV NS2/3 (810-1615BK) [1]) [%] | IC50 (HCV NS2/3 (810-1615BK) [1]) [µM] | inhibition at the highest concentrations tested [3] | IC50 [3] [µM] | further results
1 | Nc1ncnc2c1ncn2[C@@H]1O[C@H](COP(=O)(O)OP(=O)(O)NP(=O)(O)O)[C@@H](O)[C@H]1O [AMP-PNP] | 40 % of Control | 60 | 4000 |  |  | 
2 | Nc1ncnc2c1ncn2[C@@H]1O[C@H](COP(=O)(O)OP(=O)(O)OP(O)(O)=S)[C@@H](O)[C@H]1O [ATPγS] | 24 % of Control | 77 | 2000 |  |  | Inhibition of NS2/3 processing, J-strain fusion protein [2]: Inhibition by ATPγS was also observed
3 | COC1=C2C[C@@H](C)C[C@H](OC)[C@H](O)[C@@H](C)/C=C(\C)[C@H](OC(N)=O)[C@@H](OC)/C=C\C=C(/C)C(=O)NC(=CC1=O)C2=O [Geldanamycin] |  |  |  | nearly complete | 0.04 | 
4 | CO[C@H]1[C@@H](OC)C[C@H](C)[C@@H](OC)C2=CC(=O)C=C(NC(=O)/C(C)=C/C=C\[C@H](OC)[C@@H](OC(N)=O)/C(C)=C/[C@@H]1C)C2=O [Herbimycin A, herbimycin A] |  |  |  |  |  | NS2/3 Processed (% of Control) (HCV NS2/3 (810-1615BK) [4]; 1 μM): 38 % of Control; NS2/3 Processed (% of Control) (HCV NS2/3 (810-1615BK) [4]; 10 μM): 22 % of Control
5 | C[C@@H]1C[C@H]2O[C@@H]2/C=C\C=C\C(=O)Cc2c(Cl)c(O)cc(O)c2C(=O)O1 [Radicicol] |  |  |  | nearly complete | 0.013 | EC50 (HCV NS2/3 (810-1615BK) [4]; [5]): 0.22 ± 0.12 µM; Maximum Inhibition (%) (HCV NS2/3 (810-1615BK) [4]; [5]): 51%
